Measurements from patent US10047105B2, “Gyrase inhibitors” (Merck Sharp & Dohme Corp., priority 2009, dated 2018).
Converted amounts (≈) assume the structure as drawn.

Assays:
[1] = system: S. pneumoniae ATCC 51916; assay: MIC, S. pneumoniae; assay type: cell-based; settings: S. pneumoniae
[2] = system: S. aureus ATCC 13709; assay: MIC, antibacterial potency, S. aureus; assay type: cell-based; settings: S. aureus

SMILES	MIC Spn52 [1] [µg/mL]	MIC, SA [2] [µg/mL]
CCc1[nH]c2nc(Sc3cnc4nccnc4c3)nc(N3CC(N4CCCC4)C3)c2c1Cl.O=C(O)C(F)(F)F.O=C(O)C(F)(F)F [700,604]	8	4
CCc1[nH]c2nc(Sc3cnc4nccnc4c3)nc(N3CC(N4CCCCC4)C3)c2c1Cl.O=C(O)C(F)(F)F.O=C(O)C(F)(F)F [700,605]	8	4
CCc1[nH]c2nc(Sc3cnc4nccnc4c3)nc(N3CC(N4CCOCC4)C3)c2c1Cl.O=C(O)C(F)(F)F.O=C(O)C(F)(F)F [700,606]	4	2
CCc1[nH]c2nc(Sc3cnc4nccnc4c3)nc(N3CC(C)(CN)C3)c2c1Cl.O=C(O)C(F)(F)F.O=C(O)C(F)(F)F [700,607]	16	8
CCc1[nH]c2nc(Sc3cnc4nccnc4c3)nc(N3CC4C(C3)C4NC(=O)OC(C)(C)C)c2c1Cl.O=C(O)C(F)(F)F.O=C(O)C(F)(F)F (stereo not drawn) [700,608]	2	1
CCc1[nH]c2nc(Sc3ccc4nnc(C(=O)NC[C@H](C)O)nc4c3)nc(N3CC(N)C3)c2c1Cl [700,611]	8 (≈ 15.6 µM)	2 (≈ 3.89 µM)
CCc1[nH]c2nc(Cl)nc(Oc3ccc4nccnc4c3)c2c1Cl [700,612]	> 64	> 64
CCc1[nH]c2nc(Oc3ccc4nccnc4c3)nc(Oc3ccc4nccnc4c3)c2c1Cl [700,613]	4 (≈ 8.51 µM)	≤ 0.5
CCc1[nH]c2nc(Oc3cnc4c(cnn4C)c3)nc(Oc3cnc4c(cnn4C)c3)c2c1Cl [700,614]	16 (≈ 33.6 µM)	2 (≈ 4.2 µM)
CCc1[nH]c2nc(Oc3cnc4c(cnn4C)c3)nc(Oc3cccnc3)c2c1Cl [700,615]	4 (≈ 9.48 µM)	≤ 0.5
CCc1[nH]c2nc(Sc3cnc4nccnc4c3)nc(N3CC[C@@H](N)C3)c2c1Cl [700,618]	2 (≈ 4.68 µM)	≤ 0.5
CCc1[nH]c2nc(Sc3ccc4nnc(C(=O)NCCCN5CCN(C)CC5)nc4c3)nc(N3CC[C@@H](N)C3)c2c1Cl [700,619]	32 (≈ 52.4 µM)	32 (≈ 52.4 µM)
CCc1[nH]c2nc(Sc3ccc4c(N5CC(N)C5)cc(C(=O)O)nc4c3)nc(N3CC[C@@H](N)C3)c2c1Cl [700,620]	> 64	32 (≈ 59.4 µM)
CCc1[nH]c2nc(Oc3cccnc3)nc(Oc3cncnc3)c2c1Br.O=C(O)C(F)(F)F [700,621]	8	4
CCc1[nH]c2nc(Sc3cc(=O)[nH]c(=O)[nH]3)nc(N3CC4CNC4C3)c2c1Cl.O=C(O)C(F)(F)F (stereo not drawn) [700,627]	16	4
CCc1[nH]c2nc(Sc3cc(=O)n(C)c(=O)[nH]3)nc(N3CC4CNC4C3)c2c1Cl.O=C(O)C(F)(F)F (stereo not drawn) [700,628]	8	2
CCc1[nH]c2nc(Sc3cnc4nccnc4c3)nc(N3CC(C)(NC(=O)OC(C)(C)C)C3)c2c1Cl.O=C(O)C(F)(F)F [700,629]	2	≤ 0.5
CCc1[nH]c2nc(Sc3cnc4nccnc4c3)nc(N3CC(C)(N)C3)c2c1Cl.O=C(O)C(F)(F)F.O=C(O)C(F)(F)F [700,630]	8	4
CCc1[nH]c2nc(Oc3cncnc3)nc(Oc3cncc(OC)c3)c2c1Cl.O=C(O)C(F)(F)F [700,648]	2	≤ 0.5
CCc1[nH]c2nc(Oc3cnc4ccoc4c3)nc(Oc3cncc(OC)c3)c2c1Cl.O=C(O)C(F)(F)F [700,649]	2	≤ 0.5

SMILES	MIC Spn52 [1] [µg/mL]	MIC, SA [2] [µg/mL]
CCc1[nH]c2nc(Oc3cnc4ccoc4c3)nc(Oc3cnc4ccoc4c3)c2c1Cl.O=C(O)C(F)(F)F [700,650]	1	≤ 0.5
CCc1[nH]c2nc(Oc3cccnc3)nc(Oc3cccnc3)c2c1C(F)(F)F.O=C(O)C(F)(F)F [700,654]	> 64	> 64
CCc1[nH]c2nc(Sc3cnc4nccnc4c3)nc(N3CC4CC3CN4)c2c1Cl.O=C(O)C(F)(F)F (stereo not drawn) [700,655]	2	> 64
CCc1[nH]c2nc(Sc3cnc4nccnc4c3)nc(N3CCC(C(O)c4cccs4)CC3)c2c1Cl.O=C(O)C(F)(F)F (stereo not drawn) [700,656]	2	≤ 0.5
CCc1[nH]c2nc(Sc3cnc4nccnc4c3)nc(N3CC[C@H](O)[C@H]3CO)c2c1Cl [700,657]	2 (≈ 4.37 µM)	8 (≈ 17.5 µM)
CCc1[nH]c2nc(Sc3cnc4nccnc4c3)nc(N3CC4C(C3)C4NC(=N)N)c2c1Cl (stereo not drawn) [700,658]	8 (≈ 16.6 µM)	≤ 0.5
CCc1[nH]c2nc(Sc3cnc4cccnc4c3)nc(N3CC[C@H](O)[C@H]3CO)c2c1Cl [700,659]	2 (≈ 4.38 µM)	4 (≈ 8.75 µM)
CCc1[nH]c2nc(Sc3cnc4cccnc4c3)nc(N3CC4CNC4C3)c2c1Cl (stereo not drawn) [700,660]	1 (≈ 2.28 µM)	≤ 0.5
CCc1[nH]c2nc(Sc3ccc4c(N5CC(N)C5)cc(C(=O)O)nc4c3)nc(N3CC4C(N)C4C3)c2c1Cl (stereo not drawn) [700,661]	> 64	> 64
CCOc1nc(Oc2ccc3c(N)nc(C)nc3c2)nc2[nH]c(CC)c(Cl)c12.O=C(O)C(F)(F)F [700,664]	4	2
CCOc1nc(Oc2cccnc2)nc2[nH]c(CC)c(Cl)c12.O=C(O)C(F)(F)F [700,665]	8	2
CCc1[nH]c2nc(Sc3ccc(C#N)c(F)c3)nc(N3CC[C@@H](N)C3)c2c1Cl.O=C(O)C(F)(F)F [700,666]	4	2
CCc1[nH]c2nc(Sc3cnc4nccnc4c3)nc(N3CC(Oc4cccnc4)C3)c2c1Cl.O=C(O)C(F)(F)F.O=C(O)C(F)(F)F [700,667]	1	≤ 0.5
CCc1[nH]c2nc(Sc3cnc4nccnc4c3)nc(N3CC(Oc4ccc(OC)cc4)C3)c2c1Cl.O=C(O)C(F)(F)F [700,668]	> 64	8
CCc1[nH]c2nc(Sc3cnc4nccnc4c3)nc(N3CC(Oc4ccc(C(F)(F)F)cc4)C3)c2c1Cl.O=C(O)C(F)(F)F [700,669]	> 64	> 64
CCc1[nH]c2nc(Sc3cnc4nccnc4c3)nc(N3CC(C(N)=O)C3)c2c1Cl.O=C(O)C(F)(F)F [700,670]	16	16
CCc1[nH]c2nc(Sc3cnc4nccnc4c3)nc(N3CC(N4CCN(C(=O)OC(C)(C)C)CC4)C3)c2c1Cl.O=C(O)C(F)(F)F.O=C(O)C(F)(F)F [700,671]	32	8
CCc1[nH]c2nc(Sc3cnc4nccnc4c3)nc(N3CC(N4CCNCC4)C3)c2c1Cl.O=C(O)C(F)(F)F.O=C(O)C(F)(F)F [700,672]	8	8
CCc1[nH]c2nc(Sc3cnc4nccnc4c3)nc(N3CC4CNC4C3)c2c1Br.O=C(O)C(F)(F)F (stereo not drawn) [700,673]	4	2
CCc1[nH]c2nc(Sc3cnc4ccoc4c3)nc(N3CCC(N)C3)c2c1Cl.O=C(O)C(F)(F)F (stereo not drawn) [700,676]	8	4

SMILES	MIC Spn52 [1] [µg/mL]	MIC, SA [2] [µg/mL]
CCc1[nH]c2nc(Sc3cnc4ccoc4c3)nc(N3CC4CNC4C3)c2c1Cl.O=C(O)C(F)(F)F (stereo not drawn) [700,677]	8	2
CCc1[nH]c2nc(Sc3cnc4nccnc4c3)nc(N3CC(N)C4(CC4)C3)c2c1Cl.O=C(O)C(F)(F)F (stereo not drawn) [700,678]	2	1
CCc1[nH]c2nc(Sc3cnc4ccoc4c3)nc(N3CCC(N)C3)c2c1Br.O=C(O)C(F)(F)F (stereo not drawn) [700,679]	> 64	> 64
CCc1[nH]c2nc(Sc3cnc4ccoc4c3)nc(N3CC4CNC4C3)c2c1Br.O=C(O)C(F)(F)F (stereo not drawn) [700,680]	64	16
CCc1[nH]c2nc(Sc3cnc4nccnc4c3)nc(Oc3cncc(OC)c3)c2c1Cl [700,686]	> 64	> 64
CCc1[nH]c2nc(Sc3ccc4c(N)ncnc4c3)nc(Oc3cncc(OC)c3)c2c1Cl [700,687]	> 64	> 64
CCc1[nH]c2nc(Sc3cnc4nccnc4c3)nc(N3CCC[C@H]3COC)c2c1Cl [700,688]	≤ 0.5	≤ 0.5
CCc1[nH]c2nc(Sc3ccc4c(N)ncnc4c3)nc(N3CC4CNC4C3)c2c1Cl (stereo not drawn) [700,689]	8 (≈ 17.7 µM)	2 (≈ 4.42 µM)
CCOc1nc(Oc2ccc3nc(C)ccc3c2)nc2[nH]c(CC)c(Cl)c12.O=C(O)C(F)(F)F [700,690]	8	> 64
CCOc1nc(Oc2ccc3ccncc3c2)nc2[nH]c(CC)c(Cl)c12.O=C(O)C(F)(F)F [700,691]	> 64	> 64
CCc1[nH]c2nc(Sc3ccc4nc[nH]c(=O)c4c3)nc(N3CC(N)C3)c2c1Cl.O=C(O)C(F)(F)F [700,694]	8	2
CCc1[nH]c2nc(Sc3ccc4cc(C(=O)N5CC[C@@H](N)C5)cnc4c3)nc(N3CC[C@@H](N)C3)c2c1Cl [700,695]	32 (≈ 59.6 µM)	16 (≈ 29.8 µM)
CCc1[nH]c2nc(Sc3cnc4[nH]c(C(F)(F)F)nc4c3)nc(N3CC[C@@H](N)C3)c2c1Cl [700,696]	16 (≈ 33.1 µM)	> 64
CCc1[nH]c2nc(Sc3ccc4cc(C(=O)N[C@H]5CCOC5=O)cnc4c3)nc(N3CC[C@@H](N)C3)c2c1Cl [700,697]	8 (≈ 14.5 µM)	4 (≈ 7.25 µM)
CCc1[nH]c2nc(Sc3ccc4cc(C(=O)OC)cnc4c3)nc(N3CC[C@@H](N)C3)c2c1Cl [700,698]	8 (≈ 16.6 µM)	≤ 0.5
CCOc1nc(Oc2ccc3[nH]ccc3c2)nc2[nH]c(CC)c(Cl)c12.O=C(O)C(F)(F)F [700,699]	64	2
CCc1[nH]c2nc(Sc3cnc4nccnc4c3)nc(N3CCC(N4CCN(C)CC4)C3)c2c1Cl.O=C(O)C(F)(F)F.O=C(O)C(F)(F)F (stereo not drawn) [700,700]	8	4
CCOc1nc(Nc2cncnc2)nc2[nH]c(CC)c(Br)c12.O=C(O)C(F)(F)F [700,701]	8	1
CCOc1nc(Nc2cncnc2)nc2[nH]c(CC)c(Cl)c12.O=C(O)C(F)(F)F [700,702]	16	2
CCc1[nH]c2nc(Sc3ccc4cc(C(=O)O)cnc4c3)nc(N3CC[C@@H](N)C3)c2c1Cl [700,705]	> 64	> 64
